Patent publication US7629317B2, “Control of growth and repair of gastro-intestinal tissues by gastrokines and inhibitors” (The University of Chicago, priority 2001, dated 2009)
Entries after “also recorded” stand apart in the source; their conditions may differ.

Experiments:
[1] = tested on: BSC-1 epithelial cell line; test: Growth (mitogenesis) assay on confluent BSC-1 cells, cells counted 4 days later; format: cell-based, monkey; settings: for antagonism of the activity of peptide 78-119: inactive overlapping peptide with the mitogenic 42-mer; for antagonism of the activity of peptide 104-117: inactive peptide with the mitogenic 14-mer; for K1/2; concentration for half-maximal growth stimulation / EC50: synthetic peptides of Table 1; for mitogenic activity (in words): compared with related peptides; for EC50: read-out: K1/2, concentration for half-maximal growth stimulation
Description: Finding that a 42-amino acid peptide representing a central region of the novel antrum mucosal cell protein AMP-18 had mitogenic activity similar in character to that of the intact protein in pig and mouse antrum extracts (Table 1), has facilitated the characterization of the bio-active region of the molecule. […] Growth activity determinations have so far been accomplished with the kidney epithelial cell line as well as several gastric and intestinal lines.
Non-transformed monkey kidney epithelial cell line BSC-1 and other epithelial cell lines were used to assess effects on growth. In general, conditions were chosen for each line such that cells are grown to confluence in plastic dishes in supplemented growth medium with minimal calf (or fetal) serum for growth (Lieske et al., 1997); BSC-1 cells become confluent at 10^6/60 mm dish with 1% calf serum. At the start of the growth assay the medium on the confluent culture was aspirated and replaced with fresh medium with minimal serum to maintain viability (0.01% for BSC-1) cells. AMP-18 preparations were added to the culture medium and 4 days later the cell monolayer was rinsed, detached with trypsin, and the cells were counted using a hemocytometer. Determination of the capacity of AMP-18 to initiate DNA synthesis was measured by the incorporation of [^3H]thymidine (Toback, 1980); to confirm the DNA synthesis assay, autoradiograms of leveled cells were counted (Kartha and Toback, 1985).

[2] = tested on: AGS cells; test: Growth of gastric epithelial AGS cells (cell count four days later); format: cell-based, human; settings: for growth stimulation of AGS cells (in words): peptide 77-97 8 μg/ml, EGF 50 ng/ml at saturating doses
Method: (§1) To characterize the capacity of gastric and intestinal cells to respond to AMP-18, AGS gastric adenocarcinoma cells, HAE human gastric antrum mucosa primary cultures transformed with SV40 large T antigen, rat diploid small intestinal epithelial cells of the IEC-6 (FIG. 15) and IEC-18 lines, NCI N-87 gastric carcinoma cells, and SK-GT5 gastroesophageal adenocarcinoma cells were studied; human WI-38 fibroblasts and HeLa cells served as non-GI control cell lines. Mitogenesis was assayed by performing cell counts 3 to 4 days after exposing cells to the agent of interest, trypsinizing the culture to prepare single cells, and confirming this while counting them in a hemocytometer.

[3] = tested on: Helicobacter pylori; test: Growth inhibition on a bacterial lawn (filter diffusion); format: cell-based; settings: solution on filter
Method: To determine if AMP peptide inhibits growth of H. pylori, a lawn of bacteria was prepared on a culture dish. A small circular filter was placed in the center of the dish, a solution of a test agent was placed on the filter so it diffused onto the lawn, and its effect on bacterial growth around the filter was measured. AMP peptide 77-97 (SEQ ID NO: 12) (Table 1), a scrambled version of this AMP peptide (negative control) (SEQ ID NO: 19), or the antibiotic clarithromycin (positive control) was added to a filter on different cultures. […] In addition, AMP peptide could serve as a therapeutic agent to treat H. pylori infections in the stomach, and thereby prevent the capacity of this organism to cause gastritis, gastric ulcers, and gastric adenocarcinomas.

[4] = tested on: occludin, ZO-1, ZO-2, claudin-5, E-cadherin, JAM; test: Accumulation of tight and adherens junction proteins in C2 cells (immunoblot of insoluble fraction, confocal microscopy); format: cell-based, human; settings: 8 hr; peptides 8 μg/ml, EGF 50 ng/ml
Method: To find out how the peptide exerts its cytoprotective effect, C2 cell monolayers were treated with AMP peptide, and oxidant injury was induced with monochloramine 18 hours later. Changes in the levels of specific tight junction (TJ) proteins were checked. Cells were lysed, and proteins of the insoluble/particulate fraction were studied by immunoblotting. […] This observation represents the first evidence that AMP peptide enhances accumulation of specific TJ proteins in colonic epithelial cells. […] To carry out this experiment, C2 cells were exposed to AMP peptide for different periods of time, the NP-40-insoluble fraction was obtained, Western blots were prepared, and the amount of each immunoreactive protein was quantified. A 65% increase in immunoreactivity of each protein compared to control was detected for occludin after 2 hr, and for ZO-1 at 8 hr. Hsc73, which is constitutively expressed in these cells, was not altered by exposure to AMP peptide for up to 18 hr.
Confluent monolayers of C2 cells were treated with AMP peptide or vehicle for 8 hr. Cells were then collected, proteins in the NP-40-insoluble fraction were separated by SDS-PAGE, immunoblots were prepared, and the relative amounts of immunoreactive proteins were compared by densitometric analysis. […] These changes appear relatively specific for occludin, ZO-1, ZO-2, claudin-5, E-cadherin, and JAM because they were not observed for several other proteins localized in the TJ (claudin-1, claudin-2), adherens junction (β-catenin), plasma membrane (Na-K-2Cl cotransporter, α or β subunit of Na-K-ATPase), or cytosol (Rho A, hsc73).
To better understand the mechanism(s) by which AMP peptide enhances accumulation of TJ-associated proteins, experiments were performed to determine whether the peptide exerted its effect at the apical or basolateral surface of C2 cells. Monolayers of C2 cells were grown on Transwell filters, AMP peptide (8:g/ml) was added to the apical or basolateral compartment of the Transwell, and cells were harvested 8 hr later. The NP-40-insoluble fraction was obtained, its proteins separated, and immunoblots were prepared.

[5] = tested on: IEC-18 cells; test: Growth of confluent cultures of IEC-18 cells (cell count); format: cell-based, rat
Method: Confluent cultures of IEC-18 cells were prepared. One day later, medium was aspirated and replaced with 5 ml of DMEM containing CS (0.5%) and insulin, without (control) or with mitogenic peptide 58-99 (8 μg/ml). Sister plates receiving 1 ml medium and different amounts of peptide 67-85 were incubated at 1 hr at 38° C. on a CO2 incubator, and then an additional 4 ml of medium was added to each dish. Peptide 58-99 was added to 2 of the 4-sister plates at each concentration of peptide 67-85, and the number of cells was counted. […] Stimulation of cell growth by mitogenic peptide 58-99 was completely abolished by preincubation of cells with 0.25 μg/ml of peptide 67-85. […] Values for the number of cells per culture are shown relative to multiplication of cells exposed to the vehicle during the same period.
Urea (6 M) was employed to release proteins from the insoluble fraction solubilize rhAMP-18 containing the His6-tag (SEQ ID NO: 16), and make it available to bind to the Ni^2+-charged resin from which it was subsequently eluted with a gradient of imidazole (0 to 200 mM). The amount of eluted rhAMP-18 was measured using the BCA assay, and the appearance of a single band at the predicted size of 19-20 kD was confirmed by SDS-PAGE followed by immunoblotting. To determine if eluted rhAMP-18 renatured to assume a structure that was mitogenic, aliquots of the eluate (following removal of urea and imidazole by dialysis) were added to cultures of IEC-18 cells and the number of cells was counted 4 days later. […] AMP peptide 77-97 refers to the mature protein; same as peptide 97-117 of human precursor protein: Table 1. These observations indicate that biologically active recombinant human AMP-18 that can be utilized in diverse clinical situations is available. The mitogenic potency of rhAMP-18 is in the nanomolar range which would be expected for a native gastric cell growth factor that participates in the maintenance and repair of the stomach in vivo.
as §1

KKTCIVHKMKK [78–88]
antagonism of the activity of the protein in stomach extracts [1]: block | antagonism of the activity of peptide 78-119 [1]: block; also recorded: antagonize | antagonism of the activity of peptide 104-117 ([1]; listed as 68-88): NOT | antagonism of the activity of peptide 104-117 ([1]; listed as peptide 78-88): does not | K1/2; concentration for half-maximal growth stimulation [1]: Inactive

GKPLGQPGKVPKLDGKEPLAK [97–117**, scrambled version of AMP peptide 77-97, negative control, reference compound]
growth stimulation of AGS cells (in words) [2]: not stimulated | growth of H. pylori lawn ([3]; listed as scrambled AMP peptide): not | growth of H. pylori lawn ([3]; listed as scrambled peptide): did not inhibit growth | accumulation of occludin and ZO-1 (specificity) [4]: not replicated | growth stimulation of IEC-18 cells (in words) ([5]; added alone, peptides up to 8 μg/ml): did NOT stimulate growth | growth stimulation of BSC-1 cells ([1]; concentrations up to 8 μg/ml): did NOT stimulate growth

LDALVKEKKLQGKGPGGPPPKGLMY [97–121]
mitogenic activity (in words) [1]: more active | EC50 [1]: 200 nM

CC[C@H]1OC(=O)[C@H](C)[C@@H](O[C@H]2C[C@@](C)(OC)[C@@H](O)[C@H](C)O2)[C@H](C)[C@@H](O[C@@H]2O[C@H](C)C[C@H](N(C)C)[C@H]2O)[C@](C)(OC)C[C@@H](C)C(=O)[C@H](C)[C@@H](O)[C@]1(C)O [clarithromycin]
growth of H. pylori lawn [3]: inhibited growth

KKEVMPSIQSLDALVKEKK [87–105]
inhibition of growth stimulation by peptide 58-99 [2]: completely inhibits | growth stimulation of AGS cells (in words) [2]: not stimulated | concentration nearly abolishing growth-stimulatory effect of peptide 58-99 ([5]; FIG. 17): ~0.1 µg/mL | concentration completely abolishing growth stimulation by peptide 58-99 ([5]; preincubation of cells, peptide 58-99 8 μg/ml): 0.25 µg/mL | antagonism of the activity of the protein in stomach extracts [1]: block | antagonism of the activity of peptide 78-119 [1]: block; also recorded: antagonize | antagonism of the activity of peptide 104-117 ([1]; listed as peptide 87-105): blocks; also recorded: antagonizes | K1/2; concentration for half-maximal growth stimulation [1]: Inactive

KKLQGKGPGGPPPKGLMY [104–111]
mitogenic activity (in words) [1]: slightly less activity | EC50 [1]: 1000 nM

LDTMVKEQK . . . GKGPGGAPPKDLMY (LDTMVKEQKGKGPGGAPPKDLMY) [97–119]
EC50 [1]: 200 nM

GPGG [110–113]
K1/2; concentration for half-maximal growth stimulation [1]: Inactive

KKLQGKGPGGPPPK [104–117, 14 amino acid mitogenic domain]
activity relative to the 42-amino acid peptide ([1]; from the higher K1/2 value): 30-40% | EC50 [1]: 800 nM

KKTCIVHKMKKEVMPSIQSLDALVKEKKLQGKGPGGPPPKGL [78–119, 42 amino acid peptide of human preAMP-18, peptide 58-99 of the mature protein]
increase in cell number ([5]; 3 days, peptide 58-99 8 μg/ml, EGF 50 ng/ml, vehicle 290%): 407% | mitogenic activity (in words) [1]: good mitogenic activity | EC50 [1]: 300 nM

KKLQGK [104–109]
EC50 [1]: 7400 nM

KGPGGPPPK [109–117]
EC50 [1]: 2500 nM

B1: intact AMP protein: the intact, natural gastrokine AMP-18 protein of antrum mucosa (protein)
chain: YTVNINGNDGNVDGSGQQSVSINGVHNVANIDNNNGWDSWNSLWDYENSFAATRLFSKKSCIVHRMNKDAMPSLQDLDTMVKEQKGKGPGGAPPKDLMYSVNPTRVEDLNTFGPKIAGMCRGIPTYVAEEIPGPNQPLYSKKCYTADILWILRMSFCGTSVETY
estimate for the activity of the intact AMP protein ([1]; estimate): 1 to 10 nM
